The values that follow come from paper PMC11755407, “Advancements in drug discovery: integrating CADD tools and drug repurposing for PD-1/PD-L1 axis inhibition” (RSC Advances, 2025).

In test [1] the target is T1, PD-L1 (Homo sapiens, UniProt Q9NZQ7).
T1 construct: gene CD274; purified recombinant monomeric human PD-L1His (produced in plants); with PD-1 (PD-1Fc chimera)
Briefly: competitive ELISA of PD-1Fc binding to immobilized PD-L1. A general note: In an ELISA, binding on a coated surface is turned into a signal by an enzyme label.

The target in test [2] is T1, PD-L1. Briefly: competitive ELISA of PD-1Fc binding to immobilized PD-L1; also partial competition with anti-PD-L1 mAb MIH1 on MDA-MB-231 cells (flow cytometry).

pIC50: −log10 of the molar value.

T1 sequence (Q9NZQ7 19-238 limits assumed): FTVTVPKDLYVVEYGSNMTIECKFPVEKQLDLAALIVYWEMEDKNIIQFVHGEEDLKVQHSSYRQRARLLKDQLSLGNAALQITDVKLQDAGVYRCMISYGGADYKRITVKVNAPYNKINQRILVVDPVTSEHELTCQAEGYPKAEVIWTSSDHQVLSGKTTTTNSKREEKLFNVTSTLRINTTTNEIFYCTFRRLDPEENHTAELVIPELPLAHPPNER
T1 sequence (Q15116 25-288 partner): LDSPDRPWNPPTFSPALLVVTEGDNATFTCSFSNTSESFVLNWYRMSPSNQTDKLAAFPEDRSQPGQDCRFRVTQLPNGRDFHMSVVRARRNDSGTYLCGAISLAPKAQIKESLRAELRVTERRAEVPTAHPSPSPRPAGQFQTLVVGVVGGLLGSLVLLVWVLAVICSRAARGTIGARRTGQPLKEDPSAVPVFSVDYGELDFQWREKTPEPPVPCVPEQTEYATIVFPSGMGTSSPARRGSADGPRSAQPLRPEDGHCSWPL

Broadly, the pIC50 is the negative decadic logarithm of the IC50, by convention in mol/L. A low value points to a large IC50. In test [1], `Cc1c(C(=O)Nc2ccc(N3C[C@@H](C)O[C@@H](C)C3)nc2)cccc1-c1ccc(OC(F)(F)F)cc1` [compound 28, sonidegib] gave a pIC50 of 3.32. PDI-1 had a negative-log IC50 (pIC50) in test [2] of 5.26.
